Reference: BindingDB's records for doi:10.1007/s10822-022-00478-x (Roche Innovation Center Basel, F. Hoffmann-La Roche Ltd., 2022)

Target: cAMP and cAMP-inhibited cGMP 3',5'-cyclic phosphodiesterase 10A (Homo sapiens, UniProt Q9Y233)
Assay: PDE10A assay
Description: Compounds were diluted in 20 mM HEPES/NaOH (pH 7.5), 10 mM MgCl2 and 0.05 mg/ml bovine serum albumin. A fixed amount of 2 ng/well human PDE10A enzyme was added and incubated at room temperature for 15 min under agitation. The reaction was started by the addition of the substrate cocktail [3H]cGMP (Perkin Elmer NET337001MC, S.A. 13.5 Ci/mmol) / cGMP at a final concentration of 50 nM and incubated for an additional 15 min. The reaction was stopped by the addition of 0.5 mg/well of Y-Si SPA beads. The plates were shaken for 1 h, followed by a brief centrifugation (170 g for 1 min). The radioactivity bound to the beads was estimated using a TopCount (Perkin-Elmer). For the determination of IC50 values, a four parameters logistics equation was used. pIC50 is defined as − log10(IC50).

`O=C(Nc1ccn(CCC(F)(F)F)n1)c1nc(C2CC2)ccc1Nc1cncnc1` [Roche-Dataset for PDE10A, Compound 498] and `O=C(Nc1ccn(-c2ccncc2)n1)c1nc(C2CC2)ccc1Nc1cncnc1` [US8470820, 7] are within 1.5-fold of each other in IC50: 9.67 nM for the first, 9.7 nM for the second.

Compared with `CN(C)CCn1nc(-c2ccccn2)cc1NC(=O)c1nc(C2CC2)ccc1Nc1cncnc1` [US8470820, 12], `CC(C)n1nc(-c2ccccn2)cc1NC(=O)c1nc(C2CC2)ccc1Nc1cncnc1` [US8470820, 27] is 2.4-fold higher in IC50: 1.05 nM for the first, 2.55 nM for the second.

Compared with `O=C(N[C@@H]1C[C@@H](CO)N(c2ccc(Cl)cn2)C1)c1nc(C2CC2)ccc1Nc1cncnc1` [Roche-Dataset for PDE10A, Compound 118], `O=C(N[C@H]1CCN(c2ccccn2)C1)c1nc(C2CC2)ccc1Nc1cncnc1` [Roche-Dataset for PDE10A, Compound 1052] is 160-fold higher in IC50: 2.35 nM for the first, 367 nM for the second.

Compared with `Cc1ncc(C)n2nc(/C=C/c3nc(N4CCNCC4)nn3C)nc12` [Roche-Dataset for PDE10A, Compound 311], `Cc1ncc(C)n2nc(CCc3nc(N4CCNCC4)nn3C)nc12` [Roche-Dataset for PDE10A, Compound 515] is 2-fold lower in IC50: 1550 nM for the first, 767 nM for the second.

Going from `CCCNC(=O)c1cc(NC(=O)c2c(C(=O)N3CCC3)cnn2C)nn1C` [Roche-Dataset for PDE10A, Compound 871] to `CCOC(=O)c1cc(NC(=O)c2c(C(=O)N3CCC3)cnn2C)nn1C` [Roche-Dataset for PDE10A, Compound 959], the IC50 falls from 10000 nM to 1340 nM (7.5-fold). The second is the more potent here.

First: COc1ccc2c(=O)n(C)c3c(C)nc(-c4cccc(Cl)c4)n3c2c1 [Roche-Dataset for PDE10A, Compound 981]
Second: COc1ccc2c(=O)n(C)c3c(C(C)C)nc(-c4ccccc4Cl)n3c2c1 [Roche-Dataset for PDE10A, Compound 908]
The IC50 of the first is 11-fold lower: 71 nM for the first, 771 nM for the second. The first is the more potent here.

Going from `COc1cccc(-c2nc3cc(NC(=O)c4c(C(=O)N5CCC5)cnn4C)ccn3n2)n1` [Roche-Dataset for PDE10A, Compound 160] to `COc1nc2cc(NC(=O)c3c(C(=O)N4CCC4)cnn3C)ccn2n1` [Roche-Dataset for PDE10A, Compound 745], the IC50 rises from 1.09 nM to 6550 nM (6000-fold). The first is the more potent here.

Going from `Cc1cnc(C)n2nc(CCc3nc(N4CCCC4)nn3C3CC3)nc12` [Roche-Dataset for PDE10A, Compound 436] to `C/C(=C\c1nc2c(C)ncc(C)n2n1)c1nc(N2CCCC2)nn1C` [Roche-Dataset for PDE10A, Compound 805], the IC50 rises from 18 nM to 62 nM (3.4-fold). The first is the more potent here.

Going from `Cc1ncc(C)n2nc(/C=C/c3nc(N4CCCC4)cn3C)nc12` [Roche-Dataset for PDE10A, Compound 596] to `Cc1c(Br)cn2nc(/C=C/c3nc(N4CCCC4)nn3C)nc2c1C` [Roche-Dataset for PDE10A, Compound 406], the IC50 falls from 326 nM to 12 nM (27-fold). The second is the more potent here.

First: CNC(=O)c1cc2[nH]c(-c3ccccc3)nc2cc1NC(=O)c1cc(C)n(C(C)(C)C)n1 [Roche-Dataset for PDE10A, Compound 713]
Second: CNC(=O)c1cc2[nH]c(-c3ccccc3)nc2cc1NC(=O)c1ccnnc1 [Roche-Dataset for PDE10A, Compound 466]
The IC50 of the first is 3.3-fold higher: 76 nM for the first, 23 nM for the second. The second is the more potent here.

`O=C(c1nc(C2CC2)cnc1Nc1cncnc1)N1CCC(Cc2ccccc2)CC1` [Roche-Dataset for PDE10A, Compound 937] and `O=C(c1nc(C2CC2)cnc1Nc1cncnc1)N1CCN(C2CCCC2)CC1` [Roche-Dataset for PDE10A, Compound 1039] are the same in IC50: 10000 nM for the first, 10000 nM for the second.

Compared with `Cn1ncc(C(=O)N2CCC2)c1C(=O)Nc1cc2nc(-c3ccccc3)nn2cn1` [Roche-Dataset for PDE10A, Compound 236], `Cc1c(NC(=O)c2c(C(=O)N3CCC3)cnn2C)ccn2nc(-c3ccccc3)nc12` [Roche-Dataset for PDE10A, Compound 341] is 6.1-fold higher in IC50: 2.61 nM for the first, 16 nM for the second.

Going from `Cc1ncc(C)n2nc(/C=C/c3nc(-c4cc[nH]n4)nn3C)nc12` [Roche-Dataset for PDE10A, Compound 618] to `Cc1ncc(C)n2nc(/C=C/c3ncn(-c4ccccc4)n3)nc12` [Roche-Dataset for PDE10A, Compound 629], the IC50 rises from 46 nM to 162 nM (3.5-fold).

`CCN(C)c1cnc(Nc2cncnc2)c(C(=O)Nc2cnn(C)c2C(=O)NC)n1` [US8703768, 311] and `CCN(C)C(=O)c1c(NC(=O)c2nc(C3CC3)cnc2Nc2cncnc2)cnn1C` [US8703768, 203] are within 1.5-fold of each other in IC50: 19 nM for the first, 25 nM for the second.

First: O=C(Nc1nnc(-c2ccc(F)cc2)s1)c1nc(C2CC2)ccc1Nc1cncnc1 [US8470820, 45]
Second: O=C(Nc1conc1-c1ccccn1)c1nc(C2CC2)ccc1Nc1cncnc1 [Roche-Dataset for PDE10A, Compound 990]
The IC50 of the first is 410-fold higher: 6200 nM for the first, 15 nM for the second. The second is the more potent here.

Compared with `COc1ccccc1-c1nc2n(c1Cl)CC[C@@H](NC(=O)c1c(C(=O)N3CCC3)cnn1C)C2` [Roche-Dataset for PDE10A, Compound 362], `CCN(C)C(=O)c1cnn(C)c1C(=O)N[C@@H]1CCn2cc(-c3ccccc3)nc2C1` [Roche-Dataset for PDE10A, Compound 242] is 13-fold lower in IC50: 188 nM for the first, 15 nM for the second. The second is the more potent here.

First: Cn1ncc(NC(=O)c2c(C(=O)N3CCC3)cnn2C)c1C(=O)N1CCCCC1 [Roche-Dataset for PDE10A, Compound 1035]
Second: Cn1ccc(NC(=O)c2c(C(=O)N3CCC3)cnn2C)n1 [Roche-Dataset for PDE10A, Compound 1137]
The IC50 of the first is 3-fold higher: 4330 nM for the first, 1430 nM for the second. The second is the more potent here.

Compared with `O=C(Nc1cccc(N2CCCC2=O)c1)c1nc(C2CC2)ccc1Nc1cncnc1` [Roche-Dataset for PDE10A, Compound 831], `O=C(Nc1cnc(Cl)cc1Cl)c1nc(C2CC2)ccc1Nc1cncnc1` [Roche-Dataset for PDE10A, Compound 942] is 2.4-fold lower in IC50: 24 nM for the first, 9.94 nM for the second.

Going from `Cc1nc2ccccc2nc1OCc1cccc(N2CCCC2)n1` [2-methyl-3-((6-(pyrrolidin-1-yl)pyridin-2-yl)methoxy)quinoxaline] to `Cn1cc(-c2ccccc2)nc1COc1nc(N2CCOCC2)c2ccccc2n1` [Roche-Dataset for PDE10A, Compound 240], the IC50 falls from 38 nM to 11 nM (3.5-fold).

Going from `Cc1c(Cl)cc(C(F)(F)F)c2nc(CCc3nc(I)nn3C)nn12` [Roche-Dataset for PDE10A, Compound 615] to `Cc1c(Cl)cc(Cl)c2nc(CCc3nn(C)cc3Cl)nn12` [Roche-Dataset for PDE10A, Compound 861], the IC50 rises from 123 nM to 333 nM (2.7-fold).

`Cn1ncc(C(=O)N2CCC2)c1C(=O)Nc1ccn(CCN2CCOCC2)n1` [Roche-Dataset for PDE10A, Compound 1030] and `COCCn1ccc(NC(=O)c2c(C(=O)N3CCC3)cnn2C)n1` [Roche-Dataset for PDE10A, Compound 1067] are within 1.5-fold of each other in IC50: 368 nM for the first, 327 nM for the second.

`Cc1nn(C)c2nc(OCc3nc(-c4ccccc4)cn3C)ncc12` [Roche-Dataset for PDE10A, Compound 396] and `Cc1ncc(C)n2nc(CCc3ncn(-c4ccccc4)n3)nc12` [Roche-Dataset for PDE10A, Compound 400] are within 1.5-fold of each other in IC50: 107 nM for the first, 82 nM for the second.

First: Cn1ncc(C(=O)N2CCC2)c1C(=O)Nc1cc[nH]n1 [Roche-Dataset for PDE10A, Compound 1155]
Second: Cn1ncc(C(=O)N2CCC2)c1C(=O)Nc1ccn(C(C)(C)C)n1 [Roche-Dataset for PDE10A, Compound 1109]
The IC50 of the first is 4.7-fold higher: 3130 nM for the first, 672 nM for the second. The second is the more potent here.

Compared with `CNC(=O)c1cn(C)c(CCc2nc3c(C)ncc(C)n3n2)n1` [Roche-Dataset for PDE10A, Compound 675], `Cc1ncc(C)n2nc(CCc3nc(N4CCN(C(c5ccccc5)c5ccccc5)C4=O)nn3C)nc12` [Roche-Dataset for PDE10A, Compound 1145] is 21-fold higher in IC50: 228 nM for the first, 4770 nM for the second. The first is the more potent here.

First: O=C(Nc1ccnnc1)c1nc(C2CC2)cnc1Nc1cncnc1 [Roche-Dataset for PDE10A, Compound 1083]
Second: O=C1CCc2ccc(NC(=O)c3nc(C4CC4)cnc3Nc3cncnc3)cc21 [Roche-Dataset for PDE10A, Compound 881]
The IC50 of the first is 11-fold higher: 288 nM for the first, 27 nM for the second.

Going from `Cc1cc(NC(=O)c2c(C(=O)N3CCC3)cnn2C)cc(NC(=O)OC(C)(C)C)n1` [Roche-Dataset for PDE10A, Compound 1068] to `Cc1cc(NC(=O)c2c(C(=O)N3CCC3)cnn2C)cc(Br)n1` [Roche-Dataset for PDE10A, Compound 1139], the IC50 rises from 207 nM to 4650 nM (22-fold).

Going from `O=C(NCc1ccc(F)c(F)c1)c1nc(C2CC2)cnc1Nc1cncnc1` [Roche-Dataset for PDE10A, Compound 799] to `CN(C)C(=O)c1c(F)cccc1NC(=O)c1nc(C2CC2)cnc1Nc1cncnc1` [US8703768, 308], the IC50 falls from 376 nM to 0.92 nM (410-fold).

`Cn1nc(-c2ccccn2)cc1NC(=O)c1cc(C(F)(F)F)ncc1Br` [Roche-Dataset for PDE10A, Compound 547] and `Cn1nc(-c2ccccn2)cc1NC(=O)c1cccc2c1OCCO2` [Roche-Dataset for PDE10A, Compound 655] are the same in IC50: 10000 nM for the first, 10000 nM for the second.

First: COCc1ccc(NC(=O)c2nc(C3CC3)cnc2Nc2cncnc2)c(C(=O)NCC(C)(C)O)n1 [US8703768, 210]
Second: CC(C)NC(=O)c1cccc(NC(=O)c2nc(C3CC3)cnc2Nc2cncnc2)n1 [Roche-Dataset for PDE10A, Compound 928]
The IC50 of the first is 18-fold lower: 0.48 nM for the first, 8.6 nM for the second. The first is the more potent here.

`CNC(=O)c1cc(NC(=O)c2nc(C3CC3)ccc2Nc2cncnc2)n(C)n1` [Roche-Dataset for PDE10A, Compound 576] and `Cc1cc(Nc2cncnc2)cc(C(=O)Nc2cc(-c3ccccn3)nn2C)n1` [Roche-Dataset for PDE10A, Compound 542] are within 1.5-fold of each other in IC50: 74 nM for the first, 92 nM for the second.

First: Cc1c(Cl)cc(Cl)c2nc(CCc3nccs3)nn12 [Roche-Dataset for PDE10A, Compound 996]
Second: CNc1cc(C(=O)Nc2ccn3nc(-c4ccccc4)nc3c2)cc(Cl)n1 [Roche-Dataset for PDE10A, Compound 199]
The IC50 of the first is 5.9-fold higher: 511 nM for the first, 86 nM for the second. The second is the more potent here.

Work on `CCN(C)c1nc2cc(NC(=O)c3c(C(=O)N4CCOCC4)cnn3C)ccn2n1` [Roche-Dataset for PDE10A, Compound 493] yielded an IC50 of 5.55 nM.
